From ChEMBL document CHEMBL1955843, “Novel hepatitis C virus replicon inhibitors: synthesis and structure-activity relationships of fused pyrimidine derivatives” (Bioorg Med Chem Lett, 2012) come the findings set out here.

Data set [1] is described as follows: Cytotoxicity against human HuH7 cells by MTT assay. The data set is classed as cell-based, Huh-7. The following applies: read-out: TD50 (the source's name). For orientation: Formazan colour is commonly taken as a measure of viable cells.
Data set [2] has as its system Hepatitis C virus. The data set can be described thus: Antiviral activity against Hepatitis C virus subtype 1b infected in HuH7 cells assessed as inhibition of viral replication by RT-PCR analysis in the presence of fetal calf serum. The following applies: genotype 1b, Huh-7. The data set is classed as functional, organism-based, Hepacivirus hominis.
In data set [3] the test system is Hepatitis C virus. Kind of data set: Antiviral activity against Hepatitis C virus subtype 1a infected in HuH7 cells assessed as inhibition of viral replication by RT-PCR analysis in the presence of fetal calf serum. The data set is classed as functional, organism-based, Hepacivirus hominis. The conditions noted are these: Huh-7.
Data set [4] in a line: Ratio of EC50 for HCV subtype 1a to EC50 for HCV subtype 1b. The format is functional.
Data set [5] can be described thus: Half life in rat at 2.5 mg/kg, po and 2.5 mg/kg, iv. The format is ADME, organism-based. The conditions noted are these: in vivo.
Data set [6] has as its system Rattus norvegicus. Kind of data set: AUC in rat plasma at 2.5 mg/kg, po. The following applies: in vivo. Further details: dose 2.5 mg/kg, route oral. The data set is classed as ADME, organism-based.
Data set [7] relates to Rattus norvegicus. The data set can be described thus: Oral bioavailability in rat at 2.5 mg/kg. The data set is classed as ADME, organism-based. The conditions noted are these: in vivo.
Data set [8] is described as follows: Cmax in rat at 2.5 mg/kg, po. The format is ADME, organism-based. More on the design: dose 2.5 mg/kg, route oral. The conditions noted are these: in vivo.
The test system of data set [9] is Hepatitis C virus. The data set can be described thus: Antiviral activity against Hepatitis C virus subtype 1b infected in HuH7 cells assessed as inhibition of viral replication by RT-PCR analysis in the presence of human serum. The following applies: genotype 1b, Huh-7. The data set is classed as functional, organism-based, Hepacivirus hominis.
Data set [10] concerns Rattus norvegicus. The data set can be described thus: Clearance in rat at 2.5 mg/kg, po and 2.5 mg/kg, iv. The data set is classed as ADME, organism-based. The conditions noted are these: in vivo.

The structures appear in SMILES notation.

On to `Cc1ccc(Sc2ccc(O)cc2)c(Nc2ncnc3nc(Oc4ccccc4)ncc23)c1`, for which, in [1], the CC50 is 17.1 µM. In addition, the EC50 (as a rule, the concentration that produces a half-maximal response) turned out to be 3.5 µM in the data set with Hepatitis C virus [2] and 5.3 µM in the data set with Hepatitis C virus [3].
Taken in the same sequence, the figures for `Cc1ccc(Sc2ccc(O)cc2)c(Nc2ncnc3nc(CC(C)C)ccc23)c1` were 11.2 µM, 2.4 µM and 14.3 µM.
The corresponding values for `Cc1ccc(Sc2ccccc2)c(Nc2ncnc3nc(CC(C)C)ccc23)c1` are 7.5 µM, 1 µM and 13.3 µM.
As to `COc1ccc(Sc2ccc(C)cc2Nc2ncnc3nc(C)ccc23)cc1`, the CC50 in [1] stood at 28.6 µM. Moreover, the EC50 worked out at 13.3 µM in the data set on Hepatitis C virus [2] and 44.5 µM in the data set with Hepatitis C virus [3].
Taken in the same sequence, the figures for `Cc1ccc(Sc2ccccc2)c(Nc2cccc3nc(C)ccc23)c1` were 15.9 µM, 9.9 µM and 15.7 µM.
Taken in the same sequence, the figures for `Cc1ccc(Sc2ccc(F)cc2)c(Nc2ncnc3nc(C)ccc23)c1` were 6.1 µM, 3 µM and 10.5 µM.
Consider `CC(=O)Nc1ccc(Sc2ccc(C)cc2Nc2ncnc3nc(C4CC4)ccc23)cc1`, for which the CC50 in data set [1] worked out at 29.8 µM. The values for the EC50 in the data set with Hepatitis C virus [2] and with Hepatitis C virus [3] were 1.7 µM and 15.2 µM, respectively.
The corresponding values for `CCc1ccc2c(Nc3cc(C)ccc3Sc3ccc(NC(C)=O)cc3)ncnc2n1` are greater than 12.5 µM, 6.9 µM and greater than 12.5 µM.
The corresponding values for `Cc1ccc(Sc2ccccc2)c(Nc2ncnc3nc(C)ccc23)c1` are 22.2 µM, 3.84 µM and 13.3 µM.
Take `Cc1ccc(Sc2ccccc2)c(Nc2ccnc3nc(C)ccc23)c1`: in data set [1], the CC50 was 8.6 µM. The EC50 with Hepatitis C virus [2] amounted to 0.018 µM; in the data set on Hepatitis C virus [3], 1.8 µM. The Ratio EC50 in data set [4] turned out to be 100.
`CCCc1ccc2c(Nc3cc(C)ccc3Sc3ccc(NC(C)=O)cc3)ncnc2n1`: the CC50 in data set [1] was greater than 25 µM. Also, the EC50 came out at 0.63 µM in the data set on Hepatitis C virus [2] and 13.8 µM with Hepatitis C virus [3].
Taken in the same sequence, the figures for `Cc1ccc(Sc2ccc(O)cc2)c(Nc2ncnc3nc(C)ccc23)c1` were greater than 100 µM, 0.05 µM and 23.4 µM.
The corresponding values for `Cc1ccc(Sc2ccc(O)cc2)c(Nc2ncnc3nc(N(C)C)ncc23)c1` are greater than 50 µM, greater than 50 µM and greater than 50 µM.
Taken in the same sequence, the figures for `CCNc1ncc2c(Nc3cc(C)ccc3Sc3ccc(O)cc3)ncnc2n1` were greater than 50 µM, 30 µM and 47.6 µM.
Regarding `Cc1ccc(Sc2ccc(O)cc2)c(Nc2ncnc3nc(C(C)(C)C)ccc23)c1`, the CC50 in data set [1] stood at 7.1 µM. Also, the results for the EC50 in the data set on Hepatitis C virus [2] and in the data set on Hepatitis C virus [3] were 0.47 µM and 4.6 µM, respectively.
Taken in the same sequence, the figures for `Cc1ccc(Sc2ccc(O)cc2)c(Nc2ncnc3nc(N4CCCCC4)ncc23)c1` were greater than 50 µM, 2.8 µM and 22 µM.
Take `Cc1ccc(Sc2ccccc2)c(Nc2ccnc3cc(C)ccc23)c1`: in data set [1], the CC50 turned out to be 2.6 µM. For the same compound, the EC50 in the data set on Hepatitis C virus [2] came to 1.8 µM.
As for `Cc1ccc(Sc2ccc(O)cc2)c(Nc2ncnc3nc(C(C)C)ccc23)c1`, the CC50 in [1] came out at 22.9 µM. The half-life (commonly the time in which the quantity being followed falls by half) in data set [5] is 3.1 h. Besides, the AUC (in general, concentration integrated over time) in the data set on Rattus norvegicus [6] worked out at 1580 ng·h/mL. For the same compound, the EC50 in the data set on Hepatitis C virus [2] was determined as 0.016 µM; in the data set on Hepatitis C virus [3] it was 0.17 µM; in the data set on Hepatitis C virus [9], 0.17 µM. The compound also came in with a F with Rattus norvegicus [7] of 10%. Moreover, the highest concentration (Cmax) (usually the maximum level reached in the sampled fluid or tissue) in [8] turned out to be 70 nM. Besides, the CL with Rattus norvegicus [10] was determined as 26.3 mL/min/kg.
With `CCc1ccc2c(Nc3cc(C)ccc3Sc3ccc(O)cc3)ncnc2n1`, the CC50 in data set [1] was 78 µM. Also, the EC50 in the data set with Hepatitis C virus [2] came to 10 µM; in the data set with Hepatitis C virus [3] it was 62.2 µM.
The corresponding values for `Cc1ccc(Sc2ccccc2)c(Nc2ncnc3nc(C4CCC4)ccc23)c1` are 3.6 µM, 1.6 µM and 6.1 µM.
Taken in the same sequence, the figures for `CC(=O)Nc1ccc(Sc2ccc(C)cc2Nc2ncnc3nc(C)ccc23)cc1` were greater than 50 µM, greater than 50 µM and greater than 50 µM.
As to `Cc1ccc(Sc2ccc(O)cc2)c(Nc2ncnc3nc(C4CCCCC4)ccc23)c1`, in data set [1], the CC50 is greater than 3.12 µM. The EC50 in the data set with Hepatitis C virus [2] came to 0.88 µM; in the data set with Hepatitis C virus [3] it was 2.7 µM.
The corresponding values for `CCc1ccc2c(Nc3cc(C)ccc3Sc3ccccc3)ncnc2n1` are 22.7 µM, 3.4 µM and 18.9 µM.
Taken in the same sequence, the figures for `Cc1ccc(Sc2ccccc2)c(Nc2ncnc3nc(C(C)C)ccc23)c1` were 8 µM, 3.4 µM and 10.3 µM.
Taken in the same sequence, the figures for `COc1ccc(Sc2ccc(C)cc2Nc2ncnc3nc(C(C)C)ccc23)cc1` were 8.8 µM, 1.7 µM and 11.4 µM.
For the compound `Cc1ccc(Sc2ccc(O)cc2)c(Nc2ncnc3nc(C4CCC4)ccc23)c1`, in data set [1], the CC50 came out at 31.8 µM. The values for the EC50 with Hepatitis C virus [2] and with Hepatitis C virus [3] were 3.1 µM and 11.3 µM, respectively.
Taken in the same sequence, the figures for `Cc1ccc(Sc2ccc(O)cc2)c(Nc2ncnc3nc(C4CC4)ccc23)c1` were 17.4 µM, 1.6 µM and 10.5 µM.
Taken in the same sequence, the figures for `CC(=O)Nc1ccc(Sc2ccc(C)cc2Nc2ncnc3nc(C(C)C)ccc23)cc1` were 28.8 µM, 13.8 µM and 2.6 µM.
Consider `CC(=O)Nc1ccc(Sc2ccc(C)cc2Nc2ncnc3nc(CC(C)C)ccc23)cc1`, for which the CC50 in [1] turned out to be 38.5 µM. Moreover, the EC50 came out at 3.3 µM in the data set on Hepatitis C virus [2] and 27.4 µM in the data set with Hepatitis C virus [3].
On to `CCCc1ccc2c(Nc3cc(C)ccc3Sc3ccc(O)cc3)ncnc2n1`, for which, in data set [1], the CC50 is 31.1 µM. In addition, the EC50 with Hepatitis C virus [2] was 0.25 µM; in the data set with Hepatitis C virus [3], 7.1 µM.
Taken in the same sequence, the figures for `Cc1ccc(Sc2ccc(F)cc2)c(Nc2ncnc3nc(C(C)C)ccc23)c1` were 4.8 µM, 1.8 µM and 3.2 µM.
Taken in the same sequence, the figures for `CC(=O)Nc1ccc(Sc2ccc(C)cc2Nc2ncnc3nc(C4CCC4)ccc23)cc1` were 49.2 µM, 3.7 µM and 15.8 µM.
Taken in the same sequence, the figures for `COc1ncc2c(Nc3cc(C)ccc3Sc3ccc(O)cc3)ncnc2n1` were greater than 8 µM, greater than 8 µM and greater than 8 µM.
On to `Cc1ccc(Sc2ccccc2)c(Nc2ncnc3nc(C4CC4)ccc23)c1`, for which the CC50 in data set [1] was found to be 9.9 µM. Also, the EC50 came to 3.7 µM in the data set with Hepatitis C virus [2] and 10.4 µM with Hepatitis C virus [3].
On to `CCCc1ccc2c(Nc3cc(C)ccc3Sc3ccccc3)ncnc2n1`, for which the CC50 in data set [1] was found to be 11.8 µM. The EC50 stood at 0.32 µM in the data set on Hepatitis C virus [2] and 9.5 µM in the data set with Hepatitis C virus [3].
Take `CCOc1ncc2c(Nc3cc(C)ccc3Sc3ccc(O)cc3)ncnc2n1`: in data set [1], the CC50 is 29.7 µM. The EC50 in the data set with Hepatitis C virus [2] worked out at 12 µM; in the data set on Hepatitis C virus [3], 7.3 µM.
For the compound `CCSc1ncc2c(Nc3cc(C)ccc3Sc3ccc(O)cc3)ncnc2n1`, the CC50 in data set [1] was 46.9 µM. For the same compound, the figures for the EC50 with Hepatitis C virus [2] and with Hepatitis C virus [3] were 0.01 µM and 4.8 µM, respectively.
Taken in the same sequence, the figures for `Cc1ccc(Sc2ccc(NS(C)(=O)=O)cc2)c(Nc2ncnc3nc(C(C)C)ccc23)c1` were greater than 50 µM, 11.2 µM and 18.9 µM.
For the compound `Cc1ccc(Sc2ccc(O)cc2)c(Nc2ncnc3nc(N4CCOCC4)ncc23)c1`, in [1], the CC50 is greater than 50 µM. The results for the EC50 in the data set with Hepatitis C virus [2] and in the data set on Hepatitis C virus [3] were 7.3 µM and 14.1 µM, respectively.
